Results from paper PMC11842024, “Reversible male contraception by targeted inhibition of serine/threonine kinase 33” (Science (New York, N.Y.), 2024).

What was measured:
CLK2 [1] = molecular target: T1, CLK2 (Homo sapiens, UniProt P49760); assay: Z'-LYTE activity assay (ThermoFisher SelectScreen); assay type: biochemical; design: purchased SelectScreen Services (ThermoFisher); conditions: [ATP] = Kmapp
Text: (§1) In vitro biochemical assays. Several small molecule assays were outsourced to SelectScreen Services (ThermoFisher) for STK33 and for off-target kinases (data sets are available on demand).
(§2) These assays are LanthaScreen (binding assay) and Z’-LYTE (activity assay). Dose-responses were done with at least 5 different concentrations in duplicates, and parameters were optimized by calculations described below and provided with standard errors. […]
(§3) Calculation of Ki values for kinase inhibitors from Z’-LYTE inhibition data. The Morrison equation with [ATP] = Kmapp for competitive inhibition (GraphPad Prism 7, San Diego, CA) was used to get Ki values. Since Kd and Ki values are defined the same way, in other words, Kd = [E] [I] / [EI] = Ki, Kd and Ki values can be compared. […]

CLK1 [2] = molecular target: T2, CLK1 (Homo sapiens, UniProt P49759); assay: Z'-LYTE activity assay (ThermoFisher SelectScreen); assay type: biochemical; design: purchased SelectScreen Services (ThermoFisher); conditions: [ATP] = Kmapp
T2 sequence (P49759 whole entry): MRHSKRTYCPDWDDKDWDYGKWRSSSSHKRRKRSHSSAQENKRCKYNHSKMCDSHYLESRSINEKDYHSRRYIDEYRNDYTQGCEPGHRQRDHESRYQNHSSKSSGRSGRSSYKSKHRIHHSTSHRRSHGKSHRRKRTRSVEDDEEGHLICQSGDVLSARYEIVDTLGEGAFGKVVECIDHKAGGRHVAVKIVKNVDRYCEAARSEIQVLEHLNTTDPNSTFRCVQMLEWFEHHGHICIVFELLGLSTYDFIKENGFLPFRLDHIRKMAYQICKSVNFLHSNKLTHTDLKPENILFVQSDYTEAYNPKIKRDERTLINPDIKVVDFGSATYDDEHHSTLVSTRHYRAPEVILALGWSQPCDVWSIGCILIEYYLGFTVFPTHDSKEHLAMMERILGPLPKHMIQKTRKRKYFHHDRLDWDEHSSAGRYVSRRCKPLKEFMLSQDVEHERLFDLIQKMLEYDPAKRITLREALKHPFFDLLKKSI
Text: as §1, §2, §3

RET [3] = molecular target: T3, RET (Homo sapiens, UniProt P07949); assay: Z'-LYTE activity assay (ThermoFisher SelectScreen); assay type: biochemical; design: purchased SelectScreen Services (ThermoFisher); conditions: [ATP] = Kmapp
T3 sequence (P07949 29-1114): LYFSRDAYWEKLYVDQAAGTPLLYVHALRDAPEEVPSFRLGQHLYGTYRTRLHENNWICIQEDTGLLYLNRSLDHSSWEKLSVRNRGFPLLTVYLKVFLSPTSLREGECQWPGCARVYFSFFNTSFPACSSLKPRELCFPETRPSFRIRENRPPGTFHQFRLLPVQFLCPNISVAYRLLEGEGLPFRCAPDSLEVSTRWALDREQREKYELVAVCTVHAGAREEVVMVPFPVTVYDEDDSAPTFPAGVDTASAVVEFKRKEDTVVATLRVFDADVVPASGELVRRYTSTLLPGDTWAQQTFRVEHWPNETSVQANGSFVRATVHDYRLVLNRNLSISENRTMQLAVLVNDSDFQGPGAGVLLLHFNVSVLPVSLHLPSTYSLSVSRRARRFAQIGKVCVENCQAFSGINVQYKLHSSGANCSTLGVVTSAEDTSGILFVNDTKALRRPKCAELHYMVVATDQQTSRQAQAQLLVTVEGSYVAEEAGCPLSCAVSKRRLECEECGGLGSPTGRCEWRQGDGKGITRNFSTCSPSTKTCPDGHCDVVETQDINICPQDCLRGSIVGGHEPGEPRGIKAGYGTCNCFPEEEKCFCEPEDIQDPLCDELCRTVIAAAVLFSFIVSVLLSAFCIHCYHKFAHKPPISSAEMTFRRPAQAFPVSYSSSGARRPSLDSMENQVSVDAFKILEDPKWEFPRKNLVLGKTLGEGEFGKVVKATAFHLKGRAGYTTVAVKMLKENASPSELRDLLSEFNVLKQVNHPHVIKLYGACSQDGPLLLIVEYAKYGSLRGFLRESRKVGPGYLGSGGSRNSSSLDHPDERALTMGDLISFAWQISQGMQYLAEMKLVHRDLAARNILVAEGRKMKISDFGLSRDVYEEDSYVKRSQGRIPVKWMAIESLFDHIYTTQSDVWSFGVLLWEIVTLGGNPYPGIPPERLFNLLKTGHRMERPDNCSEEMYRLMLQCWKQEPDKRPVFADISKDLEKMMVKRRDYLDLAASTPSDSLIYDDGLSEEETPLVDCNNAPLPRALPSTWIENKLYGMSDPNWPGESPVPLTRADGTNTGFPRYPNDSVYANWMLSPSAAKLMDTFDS
Text: as §1, §2, §3

CLK4 [4] = molecular target: T4, CLK4 (Homo sapiens, UniProt Q9HAZ1); assay: LanthaScreen binding assay (ThermoFisher SelectScreen); design: purchased SelectScreen Services (ThermoFisher)
T4 sequence (Q9HAZ1 whole entry): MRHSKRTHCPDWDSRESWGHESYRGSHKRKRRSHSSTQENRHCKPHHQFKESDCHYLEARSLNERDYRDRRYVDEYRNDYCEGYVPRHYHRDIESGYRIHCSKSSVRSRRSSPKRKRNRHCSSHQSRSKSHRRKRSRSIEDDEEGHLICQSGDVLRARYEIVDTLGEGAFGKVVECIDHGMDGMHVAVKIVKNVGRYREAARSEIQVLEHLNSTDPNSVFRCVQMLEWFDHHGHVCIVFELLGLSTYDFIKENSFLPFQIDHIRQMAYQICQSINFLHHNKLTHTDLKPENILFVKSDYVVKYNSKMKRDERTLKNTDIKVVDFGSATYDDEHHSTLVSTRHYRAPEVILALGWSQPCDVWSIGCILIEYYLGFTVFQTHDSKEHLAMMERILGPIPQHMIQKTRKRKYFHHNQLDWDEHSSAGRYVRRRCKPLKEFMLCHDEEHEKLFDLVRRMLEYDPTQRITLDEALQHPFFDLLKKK
Text: as §1
(§4) These assays are LanthaScreen (binding assay) and Z’-LYTE (activity assay). Dose-responses were done with at least 5 different concentrations in duplicates, and parameters were optimized by calculations described below and provided with standard errors.
(§5) Calculation of Kd values for kinase inhibitors that bind to the ATP pocket of a kinase from LanthaScreen binding data. DynaFit (71) was used to fit complex equilibria where a tracer is displaced by a dilution series of a kinase inhibitor. This method relies on the concentration of inhibitor, as well as the concentration of kinase and tracer, and Kd of the tracer. The latter three parameters are tabulated by ThermoFisher for each kinase in the LanthaScreen assay panel. […]

STK33 [5] = molecular target: T5, STK33 (Homo sapiens, UniProt Q9BYT3); assay: NanoBRET target engagement intracellular kinase assay; assay type: cell-based; design: host or cells: HEK293 (HEK293T cultured); conditions: for IC50: HEK293 cells, 2 hours incubation
T5 sequence (Q9BYT3 whole entry): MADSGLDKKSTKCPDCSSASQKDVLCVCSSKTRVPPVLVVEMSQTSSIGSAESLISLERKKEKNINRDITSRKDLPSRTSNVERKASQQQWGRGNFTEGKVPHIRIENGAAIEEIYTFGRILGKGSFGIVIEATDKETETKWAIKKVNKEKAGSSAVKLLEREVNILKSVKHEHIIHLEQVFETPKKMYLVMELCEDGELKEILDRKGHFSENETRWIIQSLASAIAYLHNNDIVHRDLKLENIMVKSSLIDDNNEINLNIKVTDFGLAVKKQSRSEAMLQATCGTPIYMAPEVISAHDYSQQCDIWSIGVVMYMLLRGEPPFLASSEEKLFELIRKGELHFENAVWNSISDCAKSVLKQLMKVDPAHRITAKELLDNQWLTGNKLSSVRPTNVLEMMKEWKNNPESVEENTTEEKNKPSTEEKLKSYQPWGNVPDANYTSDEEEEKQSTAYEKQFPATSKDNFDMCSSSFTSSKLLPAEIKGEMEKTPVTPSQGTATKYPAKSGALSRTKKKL
Procedure: (§6) NanoBRET Target Engagement intracellular kinase assay. HEK293T cells were cultured in […]
(§7) The cell line underwent authentication by short tandem repeat (STR) profiling at Cytogenetics and Cell Authentication Core (CCAC) at MD Anderson Cancer Center. NanoBRET Target Engagement intracellular kinase assay, K-10 assay (Cat. # N2641), K-9 assay (Cat. # N2631), transfection reagent FuGENE HD (Cat. # E2311), transfection carrier DNA (Cat. # E4881), NanoLuc-STK33 fusion vector (Cat. # NV2111), NanoLuc-RET fusion vector (Cat. # NV1951), NanoLuc-CLK1 fusion vector (Cat. # NV1131), NanoLuc-CLK2 fusion vector (Cat. # NV1141), and NanoLuc-CLK4 fusion vector (Cat. # NV1151) were purchased from Promega. The measurement of test compound engagement with cellular target protein was performed in a 384-well format according to manufacturer’s instructions. HEK293 cells were transiently transfected with NanoLuc (STK33, RET, CLK1, CLK2, and CLK4) fusion vectors. After 36 hours of transfection, cells were treated with a fixed concentration of tracer (recommended by Promega) followed by compounds (inhibitors) for 2 hours of incubation. To determine the test compound […]
(§8) 0.4 nM at a fixed tracer concentration. Staurosporine was measured in parallel as a positive control.
(§9) Freshly prepared NanoBRET Nano-Glo substrate plus extracellular NanoLuc inhibitor was then added to initiate the subsequent bioluminescence resonance energy transfer (BRET) measurements using a CLARIOstar Plus BMG LABTECH plate reader. Data analysis was done by measuring the ratio of acceptor emission to donor emission (BRET ratio) and normalized by subtracting no-tracer-control-background. IC50 values were obtained by nonlinear regression using a four-parameter equation in GraphPad Prism 7 (San Diego, CA).

CLK4 [6] = molecular target: T4, CLK4; assay: as above; assay type: cell-based; design: host or cells: HEK293 (HEK293T cultured); conditions: for IC50: HEK293 cells, 2 hours incubation; for Fold NanoBRET IC50 CLK4 over STK33 (in parentheses): selectivity vs STK33
Procedure: as §6, §7, §8, §9

CLK2 [7] = molecular target: T1, CLK2; assay: as above; assay type: cell-based; design: host or cells: HEK293 (HEK293T cultured); conditions: for IC50: HEK293 cells, 2 hours incubation; for Fold NanoBRET IC50 CLK2 over STK33 (in parentheses): selectivity vs STK33
Procedure: as §6, §7, §8, §9

CLK1 [8] = molecular target: T2, CLK1; assay: as above; assay type: cell-based; design: host or cells: HEK293 (HEK293T cultured); conditions: for IC50: HEK293 cells, 2 hours incubation; for Fold NanoBRET IC50 CLK1 over STK33 (in parentheses): selectivity vs STK33
Procedure: as §6, §7, §8, §9

RET [9] = molecular target: T3, RET; assay: as above; assay type: cell-based; design: host or cells: HEK293 (HEK293T cultured); conditions: for IC50: HEK293 cells, 2 hours incubation; for Fold NanoBRET IC50 RET over STK33 (in parentheses): selectivity vs STK33
Procedure: as §6, §7, §8, §9

[10] = Metabolic stability assay in liver microsomes (MLM); assay type: in vitro ADME, mouse; conditions: 2.0 µM, 0.5 mg protein/mL, NADPH, data >60 min is an extrapolated estimate; for half-life at 2 µM: mouse, liver microsomes, read-out: Metabolic stability MLM, t1/2
Procedure: (§10) Metabolic stability assay in liver microsomes. The stabilities of CDD-2110, CDD-2211, CDD-2212, CDD-2807, and CDD-3348 in liver microsomes with/without Uridine Diphosphate Glucuronic Acid (UDP-GA, a cofactor of UDP-glucuronosyltransferases) were performed and half-life was calculated as previously reported (36). Briefly, each CDD compound (2.0 μM) was incubated in the mouse or human liver microsomes (0.5 mg protein/mL) at 37°C in 1× PBS fortified with NADPH (1.0 mM) and with/without UDP-GA (2.5 mM). Alamethicin (25 µg/mL) as a pore forming agent was used for the glucuronidation (Table S2A). The samples were collected at specific time-points 0, 30, and 60 min in duplicate. The reactions were terminated by adding equivalent volume of ice-cold methanol (CH3OH) and vortexed. After centrifugation at 15000 g for 10 min, 3.0 μL of the supernatant was analyzed by Thermo TSQ Quantis MS coupled with a Thermo Vanquish UHPLC (San Jose, CA) equipped with a Luna C18 column (1 mm × 50 mm, 1.6 µm, Phenomenex, Torrance, CA). The column temperature was maintained at 40°C. CDD-2807 was monitored under the selected reaction monitoring (SRM) mode coupled with a positive electrospray ionization (ESI) source. The SRM ion pairs were 447→321 for CDD-2807.

STK33 [11] = molecular target: T5, STK33; assay: LanthaScreen binding assay (ThermoFisher SelectScreen); design: purchased SelectScreen Services (ThermoFisher)
Text: as §1, §4, §5
Since Kd and Ki values are defined the same way, in other words, Kd = [E] [I] / [EI] = Ki, Kd and Ki values can be compared. […]

[12] = Metabolic stability assay in liver microsomes (HLM); assay type: in vitro ADME, human; conditions: 2.0 µM, 0.5 mg protein/mL, NADPH, data >60 min is an extrapolated estimate; for half-life at 2 µM: human, liver microsomes, read-out: Metabolic stability HLM, t1/2
Procedure: as §10

T1 sequence (P49760 whole entry): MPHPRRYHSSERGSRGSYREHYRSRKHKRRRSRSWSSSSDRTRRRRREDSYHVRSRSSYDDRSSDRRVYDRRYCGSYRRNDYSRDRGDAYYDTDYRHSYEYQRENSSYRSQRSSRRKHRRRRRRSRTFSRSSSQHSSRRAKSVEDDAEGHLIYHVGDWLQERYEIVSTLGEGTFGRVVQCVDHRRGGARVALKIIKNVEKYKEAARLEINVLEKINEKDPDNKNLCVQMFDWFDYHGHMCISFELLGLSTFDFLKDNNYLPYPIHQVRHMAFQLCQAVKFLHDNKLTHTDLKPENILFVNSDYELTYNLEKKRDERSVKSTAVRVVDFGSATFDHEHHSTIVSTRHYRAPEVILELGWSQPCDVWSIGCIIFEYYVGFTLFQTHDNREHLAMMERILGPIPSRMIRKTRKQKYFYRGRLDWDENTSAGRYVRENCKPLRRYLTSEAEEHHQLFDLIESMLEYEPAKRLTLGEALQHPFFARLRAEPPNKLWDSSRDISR

Compound: CN(C)[C@H]1CCN(C(=O)c2ccc3[nH]nc(C#Cc4ccccc4-c4ccccc4)c3c2)C1 [CDD-2212]
- Ki (CLK2 [1]): 54.8 ± 3 nM
- Ki (CLK1 [2]): 507 ± 36 nM
- Ki (RET [3]): 2 ± 1.4 nM
- Kd (CLK4 [4]): 21.5 ± 1 nM
- IC50 (STK33 [5]): 999 nM
- IC50 (CLK4 [6]): 5880 nM
- Fold NanoBRET IC50 CLK4 over STK33 (in parentheses) (CLK4 [6]): 6 X
- IC50 (CLK2 [7]): 1550 nM
- Fold NanoBRET IC50 CLK2 over STK33 (in parentheses) (CLK2 [7]): 1.5 X
- IC50 (CLK1 [8]): 3230 nM
- Fold NanoBRET IC50 CLK1 over STK33 (in parentheses) (CLK1 [8]): 3 X
- IC50 (RET [9]): 1090 nM
- Fold NanoBRET IC50 RET over STK33 (in parentheses) (RET [9]): 1.1 X
- half-life at 2 µM [10]: 9 min
- Kd (STK33 [11]): 1.9 nM
- half-life at 2 µM [12]: 8 min

Compound: O=C(c1ccc2[nH]nc(C#Cc3ccccc3-c3ccccc3)c2c1)N1CC2(CCNCC2)C1 [Compound S7]
- IC50 (STK33 [5]): 168 nM
- Metabolic stability MLM, t1/2 [10]: 46 min
- Metabolic stability HLM, t1/2 [12]: 235 min

Compound: ML281 [reference compound]
- Ki (CLK2 [1]): > 1000 nM
- Ki (CLK1 [2]): > 1000 nM
- Ki (RET [3]): > 1000 nM
- Kd (CLK4 [4]): > 1000 nM

Compound: O=C(c1ccc2[nH]nc(C#Cc3ccccc3-c3ccccc3)c2c1)N1CCC2(CCNCC2)C1 [Compound S5]
- IC50 (STK33 [5]): 1290 nM

Compound: CNC(=O)CCC1CCN(C(=O)C2CCN(C3CCN(C(=O)c4ccc5[nH]nc(C#Cc6ccccc6-c6ccccc6)c5c4)C3)CC2)CC1 (stereo not drawn) [CDD-3348]
- Ki (CLK2 [1]): 58.3 ± 3.3 nM
- Ki (CLK1 [2]): 477 ± 34 nM
- Ki (RET [3]): 5.6 ± 0.5 nM
- Kd (CLK4 [4]): 26.2 ± 1.5 nM
- selectivity toward STK33 compared to CLK1, CLK2, CLK4, and RET (STK33 [5]): > 10 fold
- IC50 (STK33 [5]): 169 nM
- IC50 (CLK4 [6]): 3850 nM
- Fold NanoBRET IC50 CLK4 over STK33 (in parentheses) (CLK4 [6]): 23 X
- IC50 (CLK2 [7]): 2530 nM
- Fold NanoBRET IC50 CLK2 over STK33 (in parentheses) (CLK2 [7]): 15 X
- IC50 (CLK1 [8]): 6730 nM
- Fold NanoBRET IC50 CLK1 over STK33 (in parentheses) (CLK1 [8]): 40 X
- IC50 (RET [9]): 6410 nM
- Fold NanoBRET IC50 RET over STK33 (in parentheses) (RET [9]): 38 X
- half-life at 2 µM [10]: 14 min
- Kd (STK33 [11]): 0.06 nM
- half-life at 2 µM [12]: 13 min

Compound: O=C(c1ccc2[nH]nc(C#Cc3ccccc3-c3ccccc3)c2c1)N1CCC(O)C1 (stereo not drawn) [Compound S2]
- IC50 (STK33 [5]): 647 nM

Compound: CN(C)C1CCN(C(=O)c2ccc3[nH]nc(C#Cc4ccc(-c5ccccc5)cc4)c3c2)C1 (stereo not drawn) [Compound S10]
- IC50 (STK33 [5]): 8710 nM
- Kd (STK33 [11]): 17.7 ± 0.7 nM

Compound: O=C(c1ccc2[nH]nc(C#Cc3ccccc3-c3ccccc3)c2c1)N1CCC2(CCCNC2)C1 (stereo not drawn) [Compound S4]
- IC50 (STK33 [5]): 517 nM
